# Results as given in US8093060B2, “Multisite phosphorylated peptide (protein) recognizing compound and detection method, imaging method, alzheimer's disease diagnosing method and reagent kit using the same” (Canon Kabushiki Kaisha, priority 2008, dated 2012).
# pEC50: −log10 of the molar value. “Also recorded” adds a separate entry of the source.
# Tests used:
# [1] = biological target: T1, phosphorylated tau aggregate (Homo sapiens, UniProt P10636); assay: Fluorescence titration of BODIPY-Zn(Dpa) against phosphorylated tau aggregate (EC50); assay type: binding
# T1 construct: made in house; host or cells: Escherichia coli
# T1 sequence (P10636 1-441 isoform P10636-8): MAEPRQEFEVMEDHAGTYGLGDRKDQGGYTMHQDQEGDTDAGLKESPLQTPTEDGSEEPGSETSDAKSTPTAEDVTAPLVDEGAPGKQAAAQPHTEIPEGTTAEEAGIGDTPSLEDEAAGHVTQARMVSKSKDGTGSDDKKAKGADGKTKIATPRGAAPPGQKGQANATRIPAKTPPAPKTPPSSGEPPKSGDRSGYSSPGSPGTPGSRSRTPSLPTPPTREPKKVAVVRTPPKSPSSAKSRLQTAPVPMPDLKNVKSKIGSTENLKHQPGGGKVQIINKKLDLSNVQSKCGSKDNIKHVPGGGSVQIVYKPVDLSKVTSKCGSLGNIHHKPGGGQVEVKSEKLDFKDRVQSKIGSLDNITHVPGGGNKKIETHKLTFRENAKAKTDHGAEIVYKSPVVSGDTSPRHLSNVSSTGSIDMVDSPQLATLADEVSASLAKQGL
# Protocol: (§1) BODIPY-Zn(Dpa) was titrated against a phosphorylated tau aggregate, a tau aggregate, and an amyloid β aggregate to obtain EC50 (a probe concentration at which a half value of the maximum change (ΔFmax) in fluorescence intensity is observed). BODIPY-Zn(Dpa) was titrated against an aggregate at a predetermined concentration (1 μg/mL), and changes in fluorescence intensity at each concentration (ΔF) were plotted. Using a solvent obtained by adding 10% DMSO and 100 μM Zn(NO3)2 to HBS (10 mM HEPES (pH 7.4), 150 mM NaCl), the solution was incubated at 37° C. for 30 min, and fluorescence was measured (excitation wavelength, 490 nm; fluorescence wavelength, 545 nm).
# [2] = biological target: T2, tau aggregate (Homo sapiens, UniProt P10636); assay: Fluorescence titration of BODIPY-Zn(Dpa) against tau aggregate (EC50); assay type: binding; conditions: aggregate 1 μg/mL, 37° C., 30 min
# T2 construct: made in house; host or cells: Escherichia coli
# T2 sequence (P10636 1-441 isoform P10636-8): as above
# Protocol: as §1
# [3] = biological target: T3, nonphosphorylated Tau aggregate (n-Tau) (Homo sapiens, UniProt P10636); assay: Fluorescence staining of nonphosphorylated tau aggregate prepared in vitro; assay type: binding; conditions: 10 μM dye
# T3 construct: made in house; host or cells: Escherichia coli
# T3 sequence (P10636 1-441 isoform P10636-8): as above
# Protocol: Tau proteins (8 μM) expressed by Escherichia coli and heparin (1.6 μM) were incubated at 37° C. for 20 days to prepare a tau aggregate. A phosphorylated tau aggregate was similarly prepared using tau proteins phosphorylated with GSK-3β in vitro. The results of Pro-Q diamond staining after performing SDS-PAGE confirmed that the in-vitro phosphorylation was performed with a phosphorylation degree of 6 mol P/mol Tau.
# 10 μM BODIPY-Zn(Dpa) or 10 μM thioflavine T (may be referred to as ThT) were added to the prepared tau aggregate or phosphorylated tau aggregate. After the addition, the mixture was washed twice with 0.5 mM Zn(NO3)2, and a suspension (0.5 μL) of the stained phosphorylated tau aggregate was air-dried on a cover glass and observed under a confocal laser scanning microscope (OLYMPUS FV-1000, Obj. lens 100×).
# [4] = biological target: T4, amyloid β aggregate (Homo sapiens, UniProt P05067); assay: Fluorescence titration of BODIPY-Zn(Dpa) against amyloid β aggregate (EC50); assay type: binding; conditions: aggregate 1 μg/mL, 37° C., 30 min
# T4 construct: (Aβ1-42) indicates amyloid β aggregate
# T4 sequence (P05067 672-713 limits assumed): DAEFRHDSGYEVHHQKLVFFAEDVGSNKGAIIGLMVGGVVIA
# Protocol: as §1
# [5] = tested on: phosphorylated tau protein; assay: Fluorescence staining of AD-affected human brain hippocampal tissue sections, costaining with tau antibodies; conditions: 10 μM probe
# Protocol: (§2) To investigate whether an excessively phosphorylated tau protein in brain tissues can be detected, a fluorescence staining experiment of hippocampal tissue sections from a human brain affected by Alzheimer (AD) and a normal brain was performed using BODIPY-Zn(Dpa). Specifically, hippocampal tissue sections from the AD-affected human brain or the normal brain were deparaffinized (xylene immersion for 5 min was repeated three times, then each section was immersed in 100%, 90%, 80% and 70% aqueous ethanol solution in stages [for 2 min each], and finally washed twice with water for 5 min), lipofuscin was removed (washed twice with PBS for 2 min, immersed in 0.25% by weight permanganate potassium/PBS for 30 min, washed twice with PBS for 2 min, immersed in 1% by weight oxalic acid and 1% by weight potassium pyrosulfate/PBS for 6 min and finally washed twice with PBS for 2 min), trypsin treatment was performed (washed twice with PBS-Tween at room temperature for 2 min and 0.05% Trypsin/PBS at 37° C. for 15 min), and finally washed twice with PBS-Tween at room temperature for 5 min, and costaining was performed using an antibody and BODIPY-Zn(Dpa). First, blocking was performed with 10% goat serum (37° C., 30 min) to remove 10% goat serum, then a primary antibody was added, and a reaction was performed at 4° C. for 17 to 19 h. […]
# [6] = tested on: amyloid beta protein; assay: Fluorescence staining of AD-affected human brain hippocampal tissue sections, costaining with anti-Aβ antibody; conditions: 10 μM probe
# Protocol: as §2
# [7] = tested on: hippocampal tissues from the normal human brain; assay: Fluorescence staining of normal human brain hippocampal tissue sections
# Protocol: as §2
# [8] = tested on: tau proteins on a tissue section; assay: Fluorescence staining of AD human hippocampal tissue sections treated with dephosphorylating enzyme (PP2A); conditions: PP2A 0.5 units/50 μL, 37° C., 24 h
# Protocol: To investigate whether an excessively phosphorylated tau protein in brain tissues can be detected, a fluorescence staining experiment of hippocampal tissue sections from a human brain affected by Alzheimer (AD) and a normal brain was performed using BODIPY-Zn(Dpa). […]
# Before staining, the sections were treated with a dephosphorylating enzyme (PP2A: 0.5 units/50 μL, 37° C., 24 h), and a fluorescence staining experiment for hippocampal tissue sections was performed according to the procedure in Example 2(12). […] Fluorescence dots observed in the BODIPY-Zn(Dpa) staining and the AT8 staining disappeared after dephosphorylating tau proteins on tissues with PP2A. […] The fluorescence dots in the BODIPY-Zn(Dpa) staining were detected depending on the phosphorylation of tau proteins.
# [9] = biological target: T5, Tau204-2163P (Homo sapiens, UniProt P10636); assay: Fluorescence titration of BODIPY-Zn(Dpa) with Tau204-2163P; assay type: binding
# T5 construct: made in house; host or cells: chemical solid-phase synthesis
# Protocol: (§3) The phosphorylated peptide-recognizing ability of BODIPY-Zn(Dpa) compound 9 (hereinafter referred to as BODIPY-Zn(Dpa)) was evaluated by measuring fluorescence spectra. Measurement was performed under the following conditions: [BODIPY-Zn(Dpa)]=5 μM; pH 7.2; 50 mM HEPES buffer; and 25° C. The excitation wavelength was λex=530 nm. […] When Tau2P was excessively added, this change reached saturation. The […] calculated from the fluorescence changes was 2.75×10^5 M^−1.
# Fluorescence changes when peptide Tau204-2163P or Tau204-2162P used in Example 1 was added dropwise were measured to calculate the affinity (association constant).
# [10] = biological target: T6, Tau0P (Homo sapiens, UniProt P10636); assay: Fluorescence titration of BODIPY-Zn(Dpa) with Tau0P; assay type: binding
# T6 construct: made in house; host or cells: chemical solid-phase synthesis
# Protocol: as §3
# [11] = biological target: T7, Tau1P (Homo sapiens, UniProt P10636); assay: Fluorescence titration of BODIPY-Zn(Dpa) with Tau1P; assay type: binding
# T7 construct: made in house; host or cells: chemical solid-phase synthesis
# Protocol: as §3
smiles,measurement,setting,value
CC1=C(c2ccc(CN(C)Cc3ccccn3)nc2)C(C)=[N+]2C1=C(c1cc(OCCOCCOCCO)cc(OCCOCCOCCO)c1)c1c(C)c(-c3ccc(CN(C)Cc4ccccn4)nc3)c(C)n1[B-]2(F)F.O=[N+]([O-])[O-].O=[N+]([O-])[O-].O=[N+]([O-])[O-].O=[N+]([O-])[O-].[Zn+2].[Zn+2] [BODIPY-Zn(Dpa)],pEC50,"[1]; aggregate 1 μg/mL, 37° C., 30 min",8.04
same,affinity (EC50) for phosphorylated tau aggregate relative to amyloid β aggregate,[1]; higher than for the amyloid β aggregate,70 times
same,affinity (EC50) for phosphorylated tau aggregate relative to tau aggregate,[1]; higher than for the tau aggregate,9 times
same,pEC50,[2],7.10
same,staining of aggregate,[3],is not observed
same,pEC50,[4],6.19
same,coexistence of fluorescence with Tau-2 and AT8 antibody staining,[5],coexisted
same,coexistence of fluorescence with Aβ42 (anti-Aβ antibody) staining,[6],did not coexist
same,fluorescence in tissue,[7],is not observed
same,fluorescence dots in staining image after PP2A treatment,[8],disappeared
same,fluorescence intensity after PP2A treatment compared with before,[8],significantly decreased
same,Association constant,"[9]; Tau204-216 3P (i, i+4, i+6)",230000 M⁻¹
same,I/I0 - 1 at saturation,"[9]; Tau204-216 3P (i, i+4, i+6)",0.25
same,detection of peptide by fluorescence change,[9]; Tau204-2163P,could be detected
same,I/I0 - 1 at saturation,[10]; Tau 0P,No change
same,fluorescence intensity change on addition of peptide,"[10]; Tau0P, unphosphorylated",no major change was observed
same,I/I0 - 1 at saturation,[11]; Tau 1P,No change
same,fluorescence intensity change on addition of peptide,"[11]; Tau1P, monophosphorylated",no major change was observed; also recorded: does not change
